Source: PubChem BioAssay (NCI)
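Interpolation was linear, between the two tested concentrations surrounding the appropriate level; five concentrations were tested over 48 hours in 96-well plates. TGI: total growth inhibition.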

Experiments:
Test in all cases: growth of human tumour cells (NCI), 48 h
OVCAR-5 ovarian = tested on: OVCAR-5 ovarian
NCI-H522 lung = tested on: NCI-H522 lung
SF-295 CNS = tested on: SF-295 CNS
HOP-92 NSCLC = tested on: HOP-92 NSCLC
SNB-75 CNS = tested on: SNB-75 CNS
NCI-H23 lung = tested on: NCI-H23 lung
786-0 renal = tested on: 786-0 renal
SK-MEL-5 melanoma = tested on: SK-MEL-5 melanoma
KM12 colon = tested on: KM12 colon
EKVX NSCLC = tested on: EKVX NSCLC
SN12C renal = tested on: SN12C renal
MOLT-4 leukemia = tested on: MOLT-4 leukemia
UACC-62 melanoma = tested on: UACC-62 melanoma
HL-60(TB) leukemia = tested on: HL-60(TB) leukemia

Row | Structure (SMILES) | TGI (OVCAR-5 ovarian) [µM] | TGI (NCI-H522 lung) [µM] | TGI (SF-295 CNS) [µM] | TGI (HOP-92 NSCLC) [µM] | TGI (SNB-75 CNS) [µM] | TGI (NCI-H23 lung) [µM] | TGI (786-0 renal) [µM] | TGI (SK-MEL-5 melanoma) [µM] | TGI (KM12 colon) [µM] | TGI (EKVX NSCLC) [µM] | TGI (SN12C renal) [µM] | TGI (MOLT-4 leukemia) [µM] | TGI (UACC-62 melanoma) [µM] | TGI (HL-60(TB) leukemia) [µM]
1 | CC(=O)NC(CCCNC(=O)N(C)N=O)C(=O)NCc1ccccc1 (centres undefined) | > 100 | > 100 | > 100 | > 100 | > 100 | > 100 | > 100 | > 100 | > 100 | > 100 | > 100 | > 100 | > 100 | –
2 | Cc1ccc(C(=O)NC2CCCCC2)cc1N=NN(C)C | – | > 100 | > 100 | > 100 | – | > 100 | > 100 | > 100 | > 100 | > 100 | > 100 | – | > 100 | –
3 | COC(=O)/C=C1\CCC2[C@@H](C(=O)CC3[C@]2(C)CCC[C@@]3(C)C(=O)OC)C1C (some centres undefined) | > 100 | 36 | 71.8 | 50.6 | 47.9 | – | > 100 | 28 | 42.6 | 72.8 | 70.8 | 25.9 | 30 | 35.1
4 | Cc1ccc(NC(=O)C2C3C=CC(O3)C2C(=O)O)cc1 (centres undefined) | > 100 | > 100 | > 100 | > 100 | > 100 | > 100 | > 100 | > 100 | – | > 100 | > 100 | > 100 | > 100 | > 100
5 | CCc1cccc(C(C)C)c1NC(=O)/C(=N\NC(N)=O)C(C(=O)OC)c1cnc2ccccc2n1 (centres undefined) | > 100 | 71.9 | > 100 | – | > 100 | 57.5 | > 100 | 35.1 | > 100 | > 100 | > 100 | > 100 | 62.7 | 79.6
6 | N#CC(NNC(=O)Cc1ccccc1)c1ccc([N+](=O)[O-])cc1 (centres undefined) | > 100 | > 100 | > 100 | > 100 | > 100 | > 100 | > 100 | > 100 | > 100 | – | > 100 | > 100 | > 100 | > 100
7 | CC(=O)NC(CCCCNCc1ccccc1)C(=O)NCc1ccccc1 (centres undefined) | > 100 | > 100 | > 100 | > 100 | > 100 | > 100 | > 100 | > 100 | > 100 | > 100 | > 100 | > 100 | > 100 | –
8 | O=C1C(Cl)C(c2ccccc2Cl)N1n1cnc2ccccc2c1=O (centres undefined) | > 100 | 85.2 | > 100 | – | 59.4 | > 100 | > 100 | > 100 | > 100 | > 100 | > 100 | > 100 | > 100 | 57.4
9 | O=C1/C(=C/c2ccccc2Cl)COc2ccc(Br)cc21 | > 100 | 80.1 | > 100 | > 100 | > 100 | > 100 | > 100 | – | > 100 | > 100 | – | > 100 | – | > 100
10 | CCCCCCCCCCCCCCCCc1c(C(=O)OC)nc(NC#N)[nH]c1=O | > 25 | > 25 | > 25 | > 25 | > 25 | > 25 | > 25 | – | > 25 | > 25 | > 25 | > 25 | – | > 25
11 | CCOC(=O)C(C)NC(=O)NC12CC3CC(CC(F)(C3)C1)C2 (centres undefined) | > 100 | > 100 | – | 56.2 | > 100 | > 100 | > 100 | > 100 | > 100 | > 100 | – | > 100 | > 100 | > 100
12 | CC1OC(n2cc(F)c(=O)[nH]c2=O)CCC1=O (centres undefined) | > 100 | > 100 | > 100 | > 100 | > 100 | – | > 100 | > 100 | > 100 | – | > 100 | > 100 | > 100 | > 100
13 | CC(=O)OCC12CC(CC1OC(C)=O)c1ccccc12 (centres undefined) | > 100 | – | > 100 | > 100 | – | > 100 | > 100 | > 100 | – | – | > 100 | > 100 | > 100 | > 100
14 | O=C1CCC2(c3ccc(Cl)cc3)Nc3ccccc3N12 (centres undefined) | > 100 | > 100 | > 100 | 90.6 | > 100 | > 100 | > 100 | – | > 100 | > 100 | > 100 | > 100 | – | > 100
15 | O=C(O)c1cnc2c(ccc3[nH]cccc32)c1=O | > 100 | > 100 | – | – | > 100 | > 100 | > 100 | > 100 | > 100 | > 100 | > 100 | > 100 | > 100 | > 100
16 | CC1(O)CC2C(CC1SC1CC3C(CC1(C)O)C3(C)C)C2(C)C (centres undefined) | > 100 | – | > 100 | > 100 | 80.1 | > 100 | > 100 | 59.7 | > 100 | 83.9 | > 100 | > 100 | – | 58.5
